# Measurements as given in publication PMC12197210, “mPEG-PCL Nanoparticles to Improve Oral Bioavailability of Acalabrutinib: Effect of Polymer Lipophilicity and Hydrophilicity on Physicochemical Properties and In Vivo Performance in Rats” (Pharmaceutics, 2025).
# Like-named read-outs stand apart in the source and are kept apart here.
# Legend:
# [1] = test system: CYP3A enzyme system; design: method as in earlier work; details: cited from earlier work
# [2] = test system: P-glycoprotein (P-gp) efflux transporter; design: method as in earlier work; details: cited from earlier work
# [3] = design: method as in earlier work; details: cited from earlier work
# [4] = cited from earlier work
# [5] = In vitro dissolution/drug release, USP Type II apparatus, membrane-less method; type: physicochemical
# Procedure: A membrane-less method using a USP Type II dissolution apparatus (Manual operating model with 8 stations, Electrolab (India) Pvt. Ltd., Mumbai, India) was employed to evaluate the dissolution and drug release behavior of both bulk ACP and freeze-dried ACP-PLHNs (both types, equivalent to 100 mg free base) under physiological pH conditions. The gastrointestinal pH was simulated with three different buffer solutions: a 0.1 N HCl buffer (pH 1.2 ± 0.02, volume = 250 mL) representing the fasted stomach; an acetate buffer (pH 4.5 ± 0.02, volume = 250 mL) representing the fed stomach; and a phosphate buffer solution (PBS, pH 6.8 ± 0.02, volume = 900 mL) representing the intestinal environment. To simulate blood/plasma conditions, 500 mL of PBS (pH 7.2 ± 0.02) was used. To maintain sink conditions, 0.5% w/v sodium dodecyl sulfate (SDS) was added to media with pH ≥ 4.5, and the volume of medium was kept at 3× the volume required to maintain the saturation solubility of ACP. The formulations were dispersed in the dissolution media, which was continuously stirred at 75 rpm and maintained at 37 ± 2 °C. Samples (1000 μL) were withdrawn at specific time intervals and replaced with an equal volume of fresh media (pre-heated to 37 ± 2 °C). The samples were then centrifuged at 15,373× g for 5 min, and the supernatant was collected, diluted with the mobile phase (methanol and a 10 mM ammonium acetate buffer, pH 3.5, in a 52:48 v/v ratio), and analyzed using the HPLC-UV method outlined in Section 2.3.3. The dissolution data were fitted to different mathematical models to determine the drug release kinetics. The best-fitting model was identified based on the regression coefficient.
compound,measurement,setting,value
"CC#CC(=O)N1CCC[C@H]1c1nc(-c2ccc(C(=O)Nc3ccccn3)cc2)c2c(N)nccn12 [ACP, Acalabrutinib]",metabolism by CYP3A,[1],metabolized by the CYP3A enzyme system
same,P-gp efflux transporter substrate status,[2],substrate
same,oral bioavailability,[3],25 ± 11%
same,aqueous solubility,[4]; pH 1,29200 µg/mL
same,aqueous solubility,[4]; pH 4.5,159 µg/mL
same,aqueous solubility,[4]; pH 6.8,52.3 µg/mL
same,solubility,[4]; pH values above 6,practically insoluble
same,time to complete dissolution,"[5]; pH 1.2, sink conditions",≤ 30 min
same,time to complete dissolution,"[5]; pH 4.5, sink conditions",≤ 30 min
same,time of complete (100%) release/dissolution,"[5]; pH 6.8, sink conditions",≤ 2 h
same,time of complete (100%) release/dissolution,"[5]; pH 7.2, sink conditions",≤ 4 h
